pIC50: −log10 of the molar value.

This assay addresses T1, human CRHR2-alpha (Homo sapiens, UniProt Q13324).
T1 sequence (Q13324 1-411): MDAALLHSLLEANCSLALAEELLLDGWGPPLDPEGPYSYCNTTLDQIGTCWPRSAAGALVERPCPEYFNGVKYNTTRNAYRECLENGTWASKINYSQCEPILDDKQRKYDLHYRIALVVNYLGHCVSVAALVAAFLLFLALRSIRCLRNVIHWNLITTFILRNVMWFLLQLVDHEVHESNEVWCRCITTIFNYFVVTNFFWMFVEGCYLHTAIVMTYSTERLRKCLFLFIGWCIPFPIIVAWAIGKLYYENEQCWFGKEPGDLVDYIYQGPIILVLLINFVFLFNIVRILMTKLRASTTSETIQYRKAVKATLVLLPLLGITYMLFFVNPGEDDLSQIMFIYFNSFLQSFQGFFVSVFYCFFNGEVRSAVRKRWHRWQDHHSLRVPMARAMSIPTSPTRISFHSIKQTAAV
The assay is described as follows: cAMP functional assay for human CRHR2 (LANCE Ultra cAMP, TR-FRET). The settings on record: CHO-K1 cells expressing human CRHR2-alpha, agonist human urocortin2 at EC80, cAMP; read-out: IC50 against CRHR2. The assay is classed as cell-based. In short, it runs like this:
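CHO-K1 stable lines; 4,000 cells/well; compound 30 min, 25° C; EC80 agonist (human urocortin2 → CRHR2, CRF → CRHR1) 30 min, 25° C; buffer HBSS/0.1% BSA/0.5 mM IBMX/5 mM Hepes pH 7.4; Eu-cAMP tracer + ULight antibody 60 min; TR-FRET read; IC50 from % inhibition curves.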
In general terms: In TR-FRET formats the signal depends on donor and acceptor labels being close together.
Regarding `O=C(N[C@H]1CC[C@H](Cn2c(=O)n(-c3cccc4cccnc34)c3ccccc32)CC1)c1cc(Cl)cnc1C(F)F` [Example 419, 5-chloro-2-(difluoromethyl)-N-((1r,4r)-4-((2-oxo-3-(quinolin-8-yl)-2,3-dihydro-1H-benzo [d]imidazol-1-yl)methyl)cyclo-hexyl)nicotinamide], the pIC50 – broadly, −log10 of the IC50, conventionally taken in molar units – is over 6.52. The figure for `O=C(N[C@H]1CC[C@H](Cn2c(=O)n(-c3cccc4nccn34)c3ccccc32)CC1)c1cc(Cl)cnc1C(F)F` [Example 420, 5-chloro-2-(difluoromethyl)-N-((1r,4r)-4-((3-(imidazo[1,2-a]pyridin-5-yl)-2-oxo-2,3-dihydro-1H-benzo[d]imidazol-1-yl)methyl)cyclohexyl)nicotinamide] is over 6.52; for `Cn1cc2c(-n3c(=O)n(C[C@H]4CC[C@H](NC(=O)c5cc(Cl)cnc5C(F)F)CC4)c4ccccc43)cccc2n1` [Example 421, 5-chloro-2-(difluoromethyl)-N-((1r,4r)-4-((3-(2-methyl-2H-indazol-4-yl)-2-oxo-2,3-dihydro-1H-benzo[d]imidazol-1-yl)methyl)cyclohexyl)nicotinamide] it is over 6.52; for `O=C(N[C@H]1CC[C@H](Cn2c(=O)n(-c3ccc4cccnc4c3)c3ccccc32)CC1)c1cc(Cl)cnc1C(F)F` [Example 422, 5-chloro-2-(difluoromethyl)-N-((1r,4r)-4-((2-oxo-3-(quinolin-7-yl)-2,3-dihydro-1H-benzo[d]imidazol-1-yl)methyl)cyclo-hexyl)nicotinamide] it is over 6.52. Under `O=C(N[C@H]1CC[C@H](Cn2c(=O)n(-c3ccc4ccncc4c3)c3ccccc32)CC1)c1cc(Cl)cnc1C(F)F` [Example 423, 5-chloro-2-(difluoromethyl)-N-((1r,4r)-4-((3-(isoquinolin-7-yl)-2-oxo-2,3-dihydro-1H-benzo[d]imidazol-1-yl)methyl)cyclohexyl)nicotinamide] stands over 6.52; under `O=C(N[C@H]1CC[C@H](Cn2c(=O)n(-c3cnc4[nH]ccc4c3)c3ccccc32)CC1)c1cc(Cl)cnc1C(F)(F)F` [Example 424, 5-chloro-N-((1r,4r)-4-((2-oxo-3-(1H-pyrrolo[2,3-b]pyridin-5-yl)-2,3-dihydro-1H-benzo [d]imidazol-1-yl)methyl)cyclo-hexyl)-2-(trifluoromethyl) nicotinamide], over 6.52.

In the case of `Cc1c[nH]c2ncc(-n3c(=O)n(C[C@H]4CC[C@H](NC(=O)c5cc(Cl)cnc5C(F)(F)F)CC4)c4ccccc43)cc12` [Example 425, 5-chloro-N-((1r,4r)-4-((3-(3-methyl-1H-pyrrolo[2,3-b]pyridin-5-yl)-2-oxo-2,3-dihydro-1H-benzo[d]imidazol-1-yl)methyl)cyclo-hexyl)-2-(trifluoromethyl) nicotinamide], the pIC50 was over 6.52. With `Cc1c[nH]c2ncc(-n3c(=O)n(C[C@H]4CC[C@H](NC(=O)c5cc(Cl)cnc5C(F)(F)F)CC4)c4cccnc43)cc12` [Example 427, 5-chloro-N-((1r,4r)-4-((3-(3-methyl-1H-pyrrolo[2,3-b]pyridin-5-yl)-2-oxo-2,3-dihydro-1H-imidazo[4,5-b]pyridin-1-yl)methyl)cyclo-hexyl)-2-(trifluoromethyl) nicotinamide], the pIC50 is over 6.52. The figure for `O=C(N[C@H]1CC[C@H](Cn2c(=O)n(-c3ccc(O[C@@H]4CCOC4)nc3)c3ccccc32)CC1)c1cc(Cl)cnc1C(F)F` [Example 428, 5-chloro-2-(difluoromethyl)-N-((1R,4r)-4-((2-oxo-3-(6-(((R)-tetrahydrofuran-3-yl)oxy)pyridin-3-yl)-2,3-dihydro-1H-benzo[d]imidazol-1-yl)methyl)cyclohexyl)nicotinamide] is over 6.52. Under `CC(C)(O)COc1ccc(-n2c(=O)n(C[C@H]3CC[C@H](NC(=O)c4cc(Cl)cnc4C(F)F)CC3)c3ccccc32)cn1` [Example 429, 5-chloro-2-(difluoromethyl)-N-((1r,4r)-4-((3-(6-(2-hydroxy-2-methylpropoxy)pyridin-3-yl)-2-oxo-2,3-dihydro-1H-benzo[d]imidazol-1-yl)methyl)cyclohexyl) nicotinamide] stands over 6.52; under `O=C(N[C@H]1CC[C@H](Cn2c(=O)n(-c3ccc(O[C@H]4CCOC4)nc3)c3ccccc32)CC1)c1cc(Cl)cnc1C(F)F` [Example 430, 5-chloro-2-(difluoromethyl)-N-((1S,4r)-4-((2-oxo-3-(6-(((S)-tetrahydrofuran-3-yl)oxy)pyridin-3-yl)-2,3-dihydro-1H-benzo[d]imidazol-1-yl)methyl)cyclohexyl)nicotinamide], over 6.52; under `CONC(=O)c1ccc(-n2c(=O)n(C[C@H]3CC[C@H](NC(=O)c4cc(Cl)cnc4C(F)(F)F)CC3)c3ccccc32)cn1` [Example 431, 5-(3-(((1r,4r)-4-(5-chloro-2-(trifluoromethyl)nicotinamido)cyclohexyl)methyl)-2-oxo-2,3-dihydro-1H-benzo[d]imidazol-1-yl)-N-methoxypicolinamide], over 6.52.

Turning to `O=C(N[C@H]1CC[C@H](Cn2c(=O)n(-c3ccc(OCCF)nc3)c3ccccc32)CC1)c1cc(Cl)cnc1C(F)F` [Example 432, 5-chloro-2-(difluoromethyl)-N-((1r,4r)-4-((3-(6-(2-fluoroethoxy)pyridin-3-yl)-2-oxo-2,3-dihydro-1H-benzo[d]imidazol-1-yl)methyl)cyclohexyl)nicotinamide], the pIC50 is over 6.52. The figure for `CNc1cc(C)c(-n2c(=O)n(C[C@H]3CC[C@H](NC(=O)c4cc(Cl)cnc4C)CC3)c3ccccc32)cn1` [Example 435, 5-chloro-2-methyl-N-((1r,4r)-4-((3-(4-methyl-6-(methylamino)pyridin-3-yl)-2-oxo-2,3-dihydro-1H-benzo[d]imidazol-1-yl)methyl)cyclohexyl)nicotinamide] is over 6.52; for `Cc1ncc(Cl)cc1C(=O)N[C@H]1CC[C@H](Cn2c(=O)n(-c3ccc(NCC(F)(F)F)nc3)c3ccccc32)CC1` [Example 436, 5-chloro-2-methyl-N-((1r,4r)-4-((2-oxo-3-(6-((2,2,2-trifluoro-ethyl)amino)pyridin-3-yl)-2,3-dihydro-1H-benzo[d]imidazol-1-yl)methyl)cyclohexyl) nicotinamide] it is over 6.52. Under `Cc1ncc(Cl)cc1C(=O)N[C@H]1CC[C@H](Cn2c(=O)n(-c3ccc(NCC(F)F)nc3)c3ccccc32)CC1` [Example 437, 5-chloro-N-((1r,4r)-4-((3-(6-((2,2-difluoroethyl)amino)pyridin-3-yl)-2-oxo-2,3-dihydro-1H-benzo[d]imidazol-1-yl)methyl)cyclohexyl)-2-methylnicotinamide] stands over 6.52; under `Cc1ncc(Cl)cc1C(=O)N[C@H]1CC[C@H](Cn2c(=O)n(-c3ccc(OC[C@@H](C)O)nc3)c3ccccc32)CC1` [Example 438, 5-chloro-N-((1R,4r)-4-((3-(6-((R)-2-hydroxypropoxy)pyridin-3-yl)-2-oxo-2,3-dihydro-1H-benzo[d]imidazol-1-yl)methyl)cyclohexyl)-2-methylnicotinamide], over 6.52. Under `C[C@@H](O)COc1ccc(-n2c(=O)n(C[C@H]3CC[C@H](NC(=O)c4cc(Cl)cnc4C(F)F)CC3)c3ccccc32)cn1` [Example 439, 5-chloro-2-(difluoromethyl)-N-((1R,4r)-4-((3-(6-((R)-2-hydroxypropoxy)pyridin-3-yl)-2-oxo-2,3-dihydro-1H-benzo[d]imidazol-1-yl)methyl)cyclohexyl)nicotinamide] stands over 6.52.

These data come from patent US11802120B2, “Fused cyclic urea derivatives as CRHR2 antagonist” (RaQualia Pharma Inc., priority 2018, dated 2023).
